Assay results published in PubChem BioAssay AID256 (DTP/NCI, 2004).
Inconclusive results and toxic doses are left out. Rule for the calls: active = survival T/C of 150% or more; inactive = T/C below 125% in these data.

Test system: CD2F1 mice, L1210 leukemia ip, survival T/C
Assay: NCI In Vivo Anticancer Drug Screen. Data for tumor model L1210 Leukemia (intraperitoneal) in CD2F1 (CDF1) mice
Details: higher = longer survival
How it was run: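 Compound-dosed mice with transplantable tumor versus matched vehicle controls; endpoint ratio T/C reported.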

[1] = endpoint: mean survival time, dose: 100.0 mg/kg/injection, schedule: Q01DX001 (ip), vehicle: saline with Tween-80
[2] = endpoint: mean survival time, dose: 200.0 mg/kg/injection, schedule: Q01DX001 (ip), vehicle: saline with Tween-80
[3] = endpoint: mean survival time, dose: 100.0 mg/kg/injection, schedule: Q01DX009 (ip), vehicle: saline
[4] = endpoint: mean survival time, dose: 100.0 mg/kg/injection, schedule: Q04DX003 (ip), vehicle: saline with Tween-80
[5] = endpoint: mean survival time, dose: 200.0 mg/kg/injection, schedule: Q01DX009 (ip), vehicle: saline
[6] = endpoint: mean survival time, dose: 100.0 mg/kg/injection, schedule: Q04DX003 (ip), vehicle: saline
[7] = endpoint: mean survival time, dose: 400.0 mg/kg/injection, schedule: Q04DX003 (ip), vehicle: saline
[8] = endpoint: mean survival time, dose: 100.0 mg/kg/injection, schedule: Q01DX009 (ip), vehicle: saline with Tween-80
[9] = endpoint: mean survival time, dose: 200.0 mg/kg/injection, schedule: Q01DX009 (ip), vehicle: saline with Tween-80
[10] = endpoint: mean survival time, dose: 400.0 mg/kg/injection, schedule: Q01DX009 (ip), vehicle: saline with Tween-80
[11] = endpoint: mean survival time, dose: 75.0 mg/kg/injection, schedule: Q01DX001 (ip), vehicle: other

Measured: T/C

Nc1cc(N)nc(N)n1
inactive: [1] 103 % of control | [2] 105 % of control

COCC/C(COC)=N\N=C(/CCOC)COC
inactive: [3] 102 % of control | endpoint: mean survival time, dose: 100.0 mg/kg/injection, schedule: Q04DX003 (ip), vehicle: Klucel (hydroxypropylcellulose) (HPC) 102 % of control | [4] 101 % of control | [5] 108 % of control | endpoint: mean survival time, dose: 200.0 mg/kg/injection, schedule: Q04DX003 (ip), vehicle: Klucel (hydroxypropylcellulose) (HPC) 102 % of control | endpoint: mean survival time, dose: 200.0 mg/kg/injection, schedule: Q04DX003 (ip), vehicle: saline with Tween-80 101 % of control | endpoint: mean survival time, dose: 400.0 mg/kg/injection, schedule: Q04DX003 (ip), vehicle: Klucel (hydroxypropylcellulose) (HPC) 114 % of control | endpoint: mean survival time, dose: 400.0 mg/kg/injection, schedule: Q04DX003 (ip), vehicle: saline with Tween-80 106 % of control

CCCCN(CCCC)CCNc1ccc(C)c2sc3ccccc3c(=O)c12
inactive: endpoint: mean survival time, dose: 50.0 mg/kg/injection, schedule: Q01DX001 (ip), vehicle: saline 91 % of control | endpoint: mean survival time, dose: 100.0 mg/kg/injection, schedule: Q01DX001 (ip), vehicle: saline 88 % of control | [3] 101 % of control | [6] 91 % of control | endpoint: mean survival time, dose: 200.0 mg/kg/injection, schedule: Q01DX001 (ip), vehicle: saline 91 % of control | [5] 91 % of control | endpoint: mean survival time, dose: 400.0 mg/kg/injection, schedule: Q01DX001 (ip), vehicle: saline 88 % of control | endpoint: mean survival time, dose: 400.0 mg/kg/injection, schedule: Q01DX009 (ip), vehicle: saline 94 % of control | [7] 87 % of control

COc1c(O)c2c(c3cc(C(=O)N4CCc5c4c(O)c(OC)c4[nH]c(C(=O)N6CC7CC78C6=CC(=O)c6[nH]cc(C)c68)cc54)[nH]c13)CCN2C(N)=O (stereo not drawn)
inactive: endpoint: mean survival time, dose: 1.0 micrograms/kg/injection, schedule: Q01DX009 (ip), vehicle: other 116 % of control | endpoint: mean survival time, dose: 4.4 micrograms/kg/injection, schedule: Q04DX003 (ip), vehicle: other 106 % of control | endpoint: mean survival time, dose: 6.6 micrograms/kg/injection, schedule: Q04DX003 (ip), vehicle: other 104 % of control | endpoint: mean survival time, dose: 10.0 micrograms/kg/injection, schedule: Q04DX003 (ip), vehicle: other 116 % of control | endpoint: mean survival time, dose: 22.5 micrograms/kg/injection, schedule: Q04DX003 (ip), vehicle: other 122 % of control | endpoint: mean survival time, dose: 30.0 micrograms/kg/injection, schedule: Q01DX009 (ip), vehicle: other 124 % of control | endpoint: mean survival time, dose: 100.0 micrograms/kg/injection, schedule: Q04DX003 (ip), vehicle: other 101 % of control

COCC1=Nc2c(ncnc2SCc2ccccc2)NN1
inactive: endpoint: mean survival time, dose: 100.0 mg/kg/injection, schedule: Q01DX001 (ip), vehicle: other 95 % of control

C=CC1(C)CCN=C(CCC(C(=O)OCC)C(=O)OCC)O1 (stereo not drawn)
inactive: endpoint: mean survival time, dose: 100.0 mg/kg/injection, schedule: Q01DX001 (ip), vehicle: saline sonified 103 % of control | endpoint: mean survival time, dose: 200.0 mg/kg/injection, schedule: Q01DX001 (ip), vehicle: saline sonified 97 % of control | endpoint: mean survival time, dose: 400.0 mg/kg/injection, schedule: Q01DX001 (ip), vehicle: saline sonified 100 % of control

Clc1ncc2cnccn12
inactive: [8] 101 % of control

Cc1nc2c(N)cc(Cl)cc2[nH]1
inactive: endpoint: median survival time, dose: 25.0 mg/kg/injection, schedule: Q01DX005 (ip), vehicle: saline with Tween-80 101 % of control | endpoint: median survival time, dose: 50.0 mg/kg/injection, schedule: Q01DX005 (ip), vehicle: saline with Tween-80 101 % of control | endpoint: median survival time, dose: 100.0 mg/kg/injection, schedule: Q01DX005 (ip), vehicle: saline with Tween-80 103 % of control

CCOC(=O)N1C(=O)c2ccccc2C1=O
inactive: [8] 93 % of control | [9] 93 % of control | [10] 100 % of control

CN(C)CCCNCCCCNCCCN(C)C
inactive: [3] 102 % of control | [6] 96 % of control | [5] 102 % of control | endpoint: mean survival time, dose: 200.0 mg/kg/injection, schedule: Q04DX003 (ip), vehicle: saline 101 % of control | [7] 106 % of control

c1ccc(-c2nncnn2)cc1
inactive: [4] 92 % of control

O=C(NC(=O)c1ccccc1)NS(=O)(=O)c1ccccc1
inactive: [8] 113 % of control | [9] 109 % of control | [10] 98 % of control

Nc1nc(NC(c2ccc(Cl)cc2)c2ccc(Cl)cc2)c2[nH]cnc2n1
inactive: [11] 103 % of control | endpoint: mean survival time, dose: 150.0 mg/kg/injection, schedule: Q01DX001 (ip), vehicle: other 101 % of control

CC(/C=N/O)=N\O.CC(/C=N/O)=N\O.[Pd]
inactive: endpoint: mean survival time, dose: 1.56 mg/kg/injection, schedule: Q01DX009 (ip), vehicle: saline with Tween-80 98 % of control | endpoint: mean survival time, dose: 1.56 mg/kg/injection, schedule: Q04DX002 (ip), vehicle: saline with Tween-80 100 % of control | endpoint: mean survival time, dose: 3.13 mg/kg/injection, schedule: Q01DX009 (ip), vehicle: saline with Tween-80 95 % of control | endpoint: mean survival time, dose: 3.13 mg/kg/injection, schedule: Q04DX002 (ip), vehicle: saline with Tween-80 95 % of control | endpoint: mean survival time, dose: 6.25 mg/kg/injection, schedule: Q04DX002 (ip), vehicle: saline with Tween-80 88 % of control | endpoint: mean survival time, dose: 25.0 mg/kg/injection, schedule: Q04DX002 (ip), vehicle: saline with Tween-80 102 % of control

CCOc1c(NCCO)c2cc(Cl)ccc2oc1=O
inactive: [1] 95 % of control | [2] 87 % of control | endpoint: mean survival time, dose: 400.0 mg/kg/injection, schedule: Q01DX001 (ip), vehicle: saline with Tween-80 97 % of control

CC(C)(CC(=O)O)CC(=O)O.[NH-]C1CCCCC1[NH-].[Pt+2]
inactive: endpoint: median survival time, dose: 3.12 mg/kg/injection, schedule: Q04DX003 (ip), vehicle: saline 87 % of control | endpoint: median survival time, dose: 6.25 mg/kg/injection, schedule: Q04DX003 (ip), vehicle: saline 102 % of control | endpoint: median survival time, dose: 12.5 mg/kg/injection, schedule: Q04DX003 (ip), vehicle: saline 98 % of control | endpoint: median survival time, dose: 25.0 mg/kg/injection, schedule: Q04DX003 (ip), vehicle: saline 108 % of control | endpoint: median survival time, dose: 50.0 mg/kg/injection, schedule: Q04DX003 (ip), vehicle: saline 101 % of control | endpoint: median survival time, dose: 100.0 mg/kg/injection, schedule: Q04DX003 (ip), vehicle: saline 103 % of control | endpoint: median survival time, dose: 200.0 mg/kg/injection, schedule: Q04DX003 (ip), vehicle: saline 112 % of control

[Cl][Sn]([c]1ccccc1)[c]1ccccc1
inactive: endpoint: mean survival time, dose: 6.25 mg/kg/injection, schedule: Q01DX009 (ip), vehicle: saline 97 % of control | endpoint: mean survival time, dose: 12.5 mg/kg/injection, schedule: Q01DX009 (ip), vehicle: saline with Tween-80 96 % of control | endpoint: mean survival time, dose: 25.0 mg/kg/injection, schedule: Q01DX009 (ip), vehicle: saline with Tween-80 106 % of control | endpoint: mean survival time, dose: 25.0 mg/kg/injection, schedule: Q01DX009 (ip), vehicle: saline 106 % of control | endpoint: mean survival time, dose: 50.0 mg/kg/injection, schedule: Q01DX009 (ip), vehicle: saline 94 % of control

ClCCOc1ccccc1-c1ccccc1
inactive: endpoint: mean survival time, dose: 100.0 mg/kg/injection, schedule: Q04DX003 (ip), vehicle: other 98 % of control | endpoint: mean survival time, dose: 200.0 mg/kg/injection, schedule: Q04DX003 (ip), vehicle: other 96 % of control | endpoint: mean survival time, dose: 400.0 mg/kg/injection, schedule: Q04DX003 (ip), vehicle: other 100 % of control

CCCCCCCC/C=C\CCCCCCCCNC(C)=O
inactive: [8] 89 % of control | [9] 89 % of control

Nc1nc(N)c(N)c(NC(c2ccccc2)c2ccccc2)n1
inactive: [11] 100 % of control

CC1CCOC(C(C)C)O1 (stereo not drawn)
inactive: endpoint: mean survival time, dose: 50.0 mg/kg/injection, schedule: Q04DX002 (ip), vehicle: saline 96 % of control | endpoint: mean survival time, dose: 100.0 mg/kg/injection, schedule: Q04DX002 (ip), vehicle: saline 96 % of control | endpoint: mean survival time, dose: 200.0 mg/kg/injection, schedule: Q04DX002 (ip), vehicle: saline 92 % of control
